Structures are written as SMILES.

The record followed here is US9145392B2, “Imidazole amines as modulators of kinase activity” (Merck Patent GmbH, priority 2011, dated 2015).

The target of assay [1] is His-AKT (Full Length) (Homo sapiens (Human), UniProt P31749). As to the kind of experiment: AKT enzyme assay. Format: biochemical. The settings on record: read-out: IC50 AKT. The protocol:
A TTP Mosquito liquid handling instrument is used to place 125n1 of the appropriate concentration of inhibitor in 100% DMSO (for a dose response curve calculation) into each well of a 384-well plate.
The reaction is incubated for 90 min at 25 C, and then stopped by the addition of 70 μl of Stop buffer (100 mM HEPES pH 7.5, 0.015% Brij-35, 10 mM EDTA (Sigma, E7889)).
The plate is read on a Caliper LC 3000 in an Off-Chip mobility shift assay format, using the following parameters for a 12-sipper chip: screening pressure −2.3 psi, upstream voltage −500, and downstream voltage −3000. These conditions cause unphosphorylated substrate and phosphorylated product peptide to resolve as separate peaks allowing direct measurement of percentage of conversion of substrate to product. The percent conversion can be plotted against concentration of inhibitor to produce a sigmoidal dose response curve, from which an IC50 can be calculated.

For assay [2], the target named is P70S6K (T412E mutant) (Homo sapiens (Human), UniProt P23443, T412E). As to the kind of experiment: P70S6K enzyme assay. Format: biochemical. The settings on record: read-out: IC50 p70S6K. The protocol:
P70S6K inhibitor compounds are diluted and plated in 96 well plates. […] The reaction is incubated for 90 min at 25° C., before the addition of 10 mM EDTA to stop the reaction. The proportion of substrate and product (phosphorylated) peptide is analysed on a Caliper Life Sciences Lab Chip 3000, using a pressure of −1.4 psi, and upstream and downstream voltages of −3000 and −700 respectively. Product peaks are resolved before substrate peaks on the resulting chromatograms.

His-AKT (Full Length), sequence (P31749 whole entry): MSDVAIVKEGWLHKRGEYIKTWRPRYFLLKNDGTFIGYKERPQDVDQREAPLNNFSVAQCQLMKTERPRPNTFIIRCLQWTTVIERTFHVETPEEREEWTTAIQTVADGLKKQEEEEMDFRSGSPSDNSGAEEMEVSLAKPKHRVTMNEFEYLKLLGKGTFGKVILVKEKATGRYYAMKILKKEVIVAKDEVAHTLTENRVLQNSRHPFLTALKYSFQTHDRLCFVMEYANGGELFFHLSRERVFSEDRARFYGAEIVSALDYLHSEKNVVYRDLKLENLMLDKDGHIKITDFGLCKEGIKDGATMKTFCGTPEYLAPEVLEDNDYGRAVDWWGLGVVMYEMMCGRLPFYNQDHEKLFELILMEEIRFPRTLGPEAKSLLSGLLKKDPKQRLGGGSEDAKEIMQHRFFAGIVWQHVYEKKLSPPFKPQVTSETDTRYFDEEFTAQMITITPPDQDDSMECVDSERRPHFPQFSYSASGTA
P70S6K (T412E mutant), sequence (P23443 whole entry T412E): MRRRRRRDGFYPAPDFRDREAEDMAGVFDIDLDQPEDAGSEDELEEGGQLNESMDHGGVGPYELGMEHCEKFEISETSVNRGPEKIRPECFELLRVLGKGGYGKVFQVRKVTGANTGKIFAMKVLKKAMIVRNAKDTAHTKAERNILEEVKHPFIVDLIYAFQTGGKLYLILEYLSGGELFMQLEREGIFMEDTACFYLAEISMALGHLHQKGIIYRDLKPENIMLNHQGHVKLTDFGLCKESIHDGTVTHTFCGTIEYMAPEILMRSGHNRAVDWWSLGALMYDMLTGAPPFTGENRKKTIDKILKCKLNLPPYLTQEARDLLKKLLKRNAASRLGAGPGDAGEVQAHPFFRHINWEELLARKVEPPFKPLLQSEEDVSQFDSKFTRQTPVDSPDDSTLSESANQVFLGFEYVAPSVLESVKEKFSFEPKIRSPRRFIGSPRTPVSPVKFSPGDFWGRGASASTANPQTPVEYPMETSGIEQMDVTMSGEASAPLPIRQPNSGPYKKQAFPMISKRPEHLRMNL

As to `Cn1cc(-c2ccc(F)c(C(F)(F)F)c2)nc1C1CCN(c2ncnc(N)c2-c2cccnc2)CC1` [Compound 53, 6-{4-[4-(4-Fluoro-3-trifluoromethyl-phenyl)-1-methyl-1H-imidazol-2-yl]-piperidin-1-yl}-5-pyridin-3-yl-pyrimidin-4-ylamine], the results for the IC50 in assay [1] and in assay [2] were 880 nM and 2.3 nM, respectively.

With `COC/C=C/c1c(N)ncnc1N1CCC(c2nc(-c3ccc(F)c(C(F)(F)F)c3)cn2C)CC1` [Compound 54, 6-{4-[4-(4-Fluoro-3-trifluoromethyl-phenyl)-1-methyl-1H-imidazol-2-yl]-piperidin-1-yl}-5-((E)-3-methoxy-propenyl)-pyrimidin-4-ylamine], the results for the IC50 in assay [1] and in assay [2] were 740 nM and 2.5 nM, respectively.

`Cc1ncc(-c2c(N)ncnc2N2CCC(c3nc(-c4ccc(F)c(C(F)(F)F)c4)cn3C)CC2)s1` [Compound 55, 6-{4-[4-(4-Fluoro-3-trifluoromethyl-phenyl)-1-methyl-1H-imidazol-2-yl]-piperidin-1-yl}-5-(2-methyl-thiazol-5-yl)-pyrimidin-4-ylamine]: the figures for the IC50 in assay [1] and in assay [2] were 850 nM and 2.1 nM, respectively.

For `Nc1ncnc(N2CCC(c3nc(-c4ccc(F)c(C(F)(F)F)c4)cn3CCN3CCCC3)CC2)c1Br` [Compound 56], the IC50 (usually the concentration that gives 50% inhibition) in assay [1] amounted to 14 nM; in assay [2], 3.5 nM.

In the case of `Nc1ncnc(N2CCC(c3nc(-c4ccc(F)c(C(F)(F)F)c4)cn3CCN3CCCC3)CC2)c1-c1ccc(F)cc1` [Compound 57], the results for the IC50 in assay [1] and in assay [2] were 140 nM and 8.2 nM, respectively.

`Nc1ncnc(N2CCC(c3nc(-c4ccc(F)c(C(F)(F)F)c4)cn3CCN3CCCC3)CC2)c1-c1ccccc1F` [Compound 58]: the results for the half-inhibitory concentration (IC50) in assay [1] and in assay [2] were 75 nM and 3.7 nM, respectively.

With `Nc1ncnc(N2CCC(c3nc(-c4ccc(F)c(C(F)(F)F)c4)cn3CCN3CCCC3)CC2)c1-c1ccc(F)c(F)c1` [Compound 59], the IC50 in assay [1] came to 110 nM; in assay [2], 9.6 nM.

Consider `C=Cc1c(N)ncnc1N1CCC(c2nc(-c3ccc(F)c(C(F)(F)F)c3)cn2CCN2CCCC2)CC1` [Compound 60], for which the IC50 in assay [1] is 6.8 nM; in assay [2] it was 2.5 nM.

With `Nc1ncnc(N2CCC(c3nc(-c4ccc(F)c(C(F)(F)F)c4)cn3CCN3CCCCC3)CC2)c1Br` [Compound 61, 5-Bromo-6-{4-[4-(4-fluoro-3-trifluoromethyl-phenyl)-1-(2-piperidin-1-yl-ethyl)-1H-imidazol-2-yl]-piperidin-1-yl}-pyrimidin-4-ylamine], the half-maximal inhibitory concentration (IC50) in assay [1] came out at 9 nM; in assay [2], 2.8 nM.

As to `Nc1ncnc(N2CCC(c3nc(-c4ccc(F)c(C(F)(F)F)c4)cn3CCN3CCCCC3)CC2)c1-c1ccc(F)cc1` [Compound 62], the IC50 in assay [1] came out at 350 nM; in assay [2] it was 18 nM.

Regarding `Nc1ncnc(N2CCC(c3nc(-c4ccc(F)c(C(F)(F)F)c4)cn3CCN3CCCCC3)CC2)c1-c1ccccc1F` [Compound 63], the IC50 in assay [1] was 130 nM; in assay [2], 5.1 nM.

As for `Nc1ncnc(N2CCC(c3nc(-c4ccc(F)c(C(F)(F)F)c4)cn3CCN3CCCCC3)CC2)c1-c1cccc(F)c1` [Compound 64], the half-maximal inhibitory concentration (IC50) in assay [1] amounted to 85 nM; in assay [2], 8.7 nM.

Take `C=Cc1c(N)ncnc1N1CCC(c2nc(-c3ccc(F)c(C(F)(F)F)c3)cn2CCN2CCCCC2)CC1` [Compound 65, 6-{4-[4-(4-Fluoro-3-trifluoromethyl-phenyl)-1-(2-piperidin-1-yl-ethyl)-1H-imidazol-2-yl]-piperidin-1-yl}-5-vinyl-pyrimidin-4-ylamine]: the IC50 worked out at 12 nM in assay [1] and 5.5 nM in assay [2].

As for `Nc1cc(N2CCC(c3nc(-c4ccc(F)c(C(F)(F)F)c4)cn3CCN3CCCCC3)CC2)ncn1` [Compound 66], the results for the IC50 in assay [1] and in assay [2] were 410 nM and 110 nM, respectively.

Consider `CN(C)CCn1cc(-c2ccc(F)c(C(F)(F)F)c2)nc1C1CCN(c2ncnc(N)c2Br)CC1` [Compound 67, 5-Bromo-6-{4-[1-(2-dimethylamino-ethyl)-4-(4-fluoro-3-trifluoromethyl-phenyl)-1H-imidazol-2-yl]-piperidin-1-yl}-pyrimidin-4-ylamine], for which the concentration for half-maximal inhibition (IC50) in assay [1] is 9.3 nM; in assay [2], 2.2 nM.

Turning to `CN(C)CCn1cc(-c2ccc(F)c(C(F)(F)F)c2)nc1C1CCN(c2ncnc(N)c2-c2ccc(F)cc2)CC1` [Compound 68, 6-{4-[1-(2-Dimethylamino-ethyl)-4-(4-fluoro-3-trifluoromethyl-phenyl)-1H-imidazol-2-yl]-piperidin-1-yl}-5-(4-fluoro-phenyl)-pyrimidin-4-ylamine], the IC50 came to 230 nM in assay [1] and 7.3 nM in assay [2].

For the molecule `CN(C)CCn1cc(-c2ccc(F)c(C(F)(F)F)c2)nc1C1CCN(c2ncnc(N)c2-c2ccncc2)CC1` [Compound 69, 6-{4-[1-(2-Dimethylamino-ethyl)-4-(4-fluoro-3-trifluoromethyl-phenyl)-1H-imidazol-2-yl]-piperidin-1-yl}-5-pyridin-4-yl-pyrimidin-4-ylamine], the IC50 in assay [1] was 43 nM; in assay [2], 3 nM.

As for `CN(C)CCn1cc(-c2ccc(F)c(C(F)(F)F)c2)nc1C1CCN(c2ncnc(N)c2-c2cnc(N)nc2)CC1` [Compound 71, 6′-{4-[1-(2-Dimethylamino-ethyl)-4-(4-fluoro-3-trifluoromethyl-phenyl)-1H-imidazol-2-yl]-piperidin-1-yl}-[5,5′]bipyrimidinyl-2,4′-diamine], the half-inhibitory concentration (IC50) in assay [1] came to 450 nM; in assay [2], 5.6 nM.

`C=C(C)c1c(N)ncnc1N1CCC(c2nc(-c3ccc(F)c(C(F)(F)F)c3)cn2CCN(C)C)CC1` [Compound 72, 6-{4-[1-(2-Dimethylamino-ethyl)-4-(4-fluoro-3-trifluoromethyl-phenyl)-1H-imidazol-2-yl]-piperidin-1-yl}-5-isopropenyl-pyrimidin-4-ylamine]: the IC50 in assay [1] is 15 nM; in assay [2], 5 nM.

Turning to `C=Cc1c(N)ncnc1N1CCC(c2nc(-c3ccc(F)c(C(F)(F)F)c3)cn2CCN(C)C)CC1` [Compound 73, 6-{4-[1-(2-Dimethylamino-ethyl)-4-(4-fluoro-3-trifluoromethyl-phenyl)-1H-imidazol-2-yl]-piperidin-1-yl}-5-vinyl-pyrimidin-4-ylamine], the IC50 in assay [1] was 7.9 nM; in assay [2], 2.7 nM.

For the molecule `N#Cc1c(N)ncnc1N1CCC(c2nc(-c3ccc(F)c(C(F)(F)F)c3)cn2CCN2CCC2)CC1` [Compound 74, 4-Amino-6-{4-[1-(2-azetidin-1-yl-ethyl)-4-(4-fluoro-3-trifluoromethyl-phenyl)-1H-imidazol-2-yl]-piperidin-1-yl}-pyrimidine-5-carbonitrile], the concentration for half-maximal inhibition (IC50) in assay [1] was 2.6 nM; in assay [2], 1.2 nM.

With `N#Cc1c(N)ncnc1N1CCC(c2nc(-c3ccc(F)c(Cl)c3)cn2CCN2CCC2)CC1` [Compound 75, 4-Amino-6-{4-[1-(2-azetidin-1-yl-ethyl)-4-(3-chloro-4-fluoro-phenyl)-1H-imidazol-2-yl]-piperidin-1-yl}-pyrimidine-5-carbonitrile], the IC50 in assay [1] was 1.9 nM; in assay [2], 1 nM.

With `N#Cc1c(N)ncnc1N1CCC(c2nc(-c3ccc(OC(F)F)cc3)cn2CCN2CCC2)CC1` [Compound 76, 4-Amino-6-{4-[1-(2-azetidin-1-yl-ethyl)-4-(4-difluoromethoxy-phenyl)-1H-imidazol-2-yl]-piperidin-1-yl}-pyrimidine-5-carbonitrile], the figures for the concentration for half-maximal inhibition (IC50) in assay [1] and in assay [2] were 479 nM and 2.1 nM, respectively.

For the molecule `N#Cc1c(N)ncnc1N1CCC(c2nc(C3CCCCC3)cn2CCN2CCC2)CC1` [Compound 77, 4-Amino-6-{4-[1-(2-azetidin-1-yl-ethyl)-4-cyclohexyl-1H-imidazol-2-yl]-piperidin-1-yl}-pyrimidine-5-carbonitrile], the values for the IC50 in assay [1] and in assay [2] were 76 nM and 6 nM, respectively.

Consider `NC(=O)c1c(N)ncnc1N1CCC(c2nc(-c3ccc(F)c(C(F)(F)F)c3)cn2CCN2CCC2)CC1` [Compound 78, 4-Amino-6-{4-[1-(2-azetidin-1-yl-ethyl)-4-(4-fluoro-3-trifluoromethyl-phenyl)-1H-imidazol-2-yl]-piperidin-1-yl}-pyrimidine-5-carboxylic acid amide], for which the 50% inhibitory concentration (IC50) worked out at 14 nM in assay [1] and 2 nM in assay [2].

For the molecule `NC(=O)c1c(N)ncnc1N1CCC(c2nc(-c3ccc(F)c(Cl)c3)cn2CCN2CCC2)CC1` [Compound 79, 4-Amino-6-{4-[1-(2-azetidin-1-yl-ethyl)-4-(3-chloro-4-fluoro-phenyl)-1H-imidazol-2-yl]-piperidin-1-yl}-pyrimidine-5-carboxylic acid amide], the results for the IC50 in assay [1] and in assay [2] were 7.5 nM and 0.9 nM, respectively.

Take `NC(=O)c1c(N)ncnc1N1CCC(c2nc(C3CCCCC3)cn2CCN2CCC2)CC1` [Compound 80, 4-Amino-6-{4-[1-(2-azetidin-1-yl-ethyl)-4-cyclohexyl-1H-imidazol-2-yl]-piperidin-1-yl}-pyrimidine-5-carboxylic acid amide]: the IC50 in assay [1] turned out to be 1400 nM; in assay [2] it was 95 nM.
